Laboratory results published in ChEMBL document CHEMBL5360622, “Leucettinibs, a Class of DYRK/CLK Kinase Inhibitors Inspired by the Marine Sponge Natural Product Leucettamine B” (J Med Chem, 2023).

Legend:
[1] = molecular target: Cyclin-dependent kinase 5/CDK5 activator 1 (Homo sapiens, UniProt Q00535); type: cell-based, Sf9
[2] = molecular target: Dual specificity protein kinase CLK3 (Homo sapiens, UniProt P49761); type: cell-based, Sf9
[3] = molecular target: T1, Dual specificity tyrosine-phosphorylation-regulated kinase 3 (Homo sapiens, UniProt O43781)
T1 sequence (O43781 whole entry): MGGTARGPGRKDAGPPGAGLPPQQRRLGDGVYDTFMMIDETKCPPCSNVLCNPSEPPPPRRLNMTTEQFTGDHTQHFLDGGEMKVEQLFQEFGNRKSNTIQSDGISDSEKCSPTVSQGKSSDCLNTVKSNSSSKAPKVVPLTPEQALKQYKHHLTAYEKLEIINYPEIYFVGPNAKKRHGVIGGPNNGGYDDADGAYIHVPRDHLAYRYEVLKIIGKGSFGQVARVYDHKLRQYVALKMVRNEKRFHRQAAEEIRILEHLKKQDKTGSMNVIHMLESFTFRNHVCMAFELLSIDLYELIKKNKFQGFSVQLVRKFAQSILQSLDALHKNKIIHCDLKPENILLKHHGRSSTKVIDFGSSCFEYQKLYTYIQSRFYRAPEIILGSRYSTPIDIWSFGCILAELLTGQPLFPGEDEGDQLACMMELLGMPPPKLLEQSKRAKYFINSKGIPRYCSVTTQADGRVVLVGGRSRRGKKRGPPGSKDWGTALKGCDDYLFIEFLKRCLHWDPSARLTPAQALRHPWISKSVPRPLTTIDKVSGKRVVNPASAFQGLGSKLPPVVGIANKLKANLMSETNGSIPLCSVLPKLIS

[4] = molecular target: Dual specificity tyrosine-phosphorylation-regulated kinase 1A (Homo sapiens, UniProt Q13627)
[5] = molecular target: T2, Dual specificity tyrosine-phosphorylation-regulated kinase 4 (Homo sapiens, UniProt Q9NR20)
T2 sequence (Q9NR20 whole entry): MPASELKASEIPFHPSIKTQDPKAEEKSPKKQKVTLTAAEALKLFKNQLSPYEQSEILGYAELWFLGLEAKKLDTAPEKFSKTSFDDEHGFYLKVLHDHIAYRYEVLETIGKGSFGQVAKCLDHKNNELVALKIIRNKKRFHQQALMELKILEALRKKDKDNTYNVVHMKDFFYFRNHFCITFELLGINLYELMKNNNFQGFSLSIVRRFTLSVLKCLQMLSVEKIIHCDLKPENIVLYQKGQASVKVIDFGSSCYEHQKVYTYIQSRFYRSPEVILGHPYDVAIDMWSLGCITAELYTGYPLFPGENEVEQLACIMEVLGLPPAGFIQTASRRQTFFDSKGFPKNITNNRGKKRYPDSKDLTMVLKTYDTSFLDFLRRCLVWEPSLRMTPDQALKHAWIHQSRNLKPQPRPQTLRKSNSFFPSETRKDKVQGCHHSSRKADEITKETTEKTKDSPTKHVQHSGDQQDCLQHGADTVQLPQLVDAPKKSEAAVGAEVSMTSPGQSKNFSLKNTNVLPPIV

[6] = molecular target: Dual specificity protein kinase CLK2 (Homo sapiens, UniProt P49760)
[7] = molecular target: Casein kinase I isoform epsilon (Homo sapiens, UniProt P49674)
[8] = molecular target: T3, Dual specificity tyrosine-phosphorylation-regulated kinase 2 (Homo sapiens, UniProt Q92630)
T3 sequence (Q92630 whole entry): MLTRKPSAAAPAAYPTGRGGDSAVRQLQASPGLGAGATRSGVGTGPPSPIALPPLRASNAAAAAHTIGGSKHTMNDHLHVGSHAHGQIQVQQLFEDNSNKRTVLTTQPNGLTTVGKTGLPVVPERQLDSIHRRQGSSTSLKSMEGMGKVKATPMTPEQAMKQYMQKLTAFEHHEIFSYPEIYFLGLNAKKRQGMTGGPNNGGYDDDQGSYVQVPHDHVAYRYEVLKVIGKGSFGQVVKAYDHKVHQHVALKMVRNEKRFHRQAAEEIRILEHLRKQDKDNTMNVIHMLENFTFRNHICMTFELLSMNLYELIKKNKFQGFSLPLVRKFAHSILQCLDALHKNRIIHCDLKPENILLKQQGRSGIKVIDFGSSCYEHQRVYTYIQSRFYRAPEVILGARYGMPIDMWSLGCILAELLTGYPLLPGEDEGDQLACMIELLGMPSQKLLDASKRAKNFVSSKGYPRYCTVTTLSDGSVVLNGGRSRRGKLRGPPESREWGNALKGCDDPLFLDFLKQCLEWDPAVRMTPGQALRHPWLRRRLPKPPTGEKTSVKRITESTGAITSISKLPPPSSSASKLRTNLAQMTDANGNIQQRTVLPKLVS

[9] = molecular target: Glycogen synthase kinase-3 beta (Homo sapiens, UniProt P49841); type: cell-based, Sf9
[10] = molecular target: Dual specificity protein kinase CLK4 (Homo sapiens, UniProt Q9HAZ1)
[11] = molecular target: Dual specificity protein kinase CLK1 (Homo sapiens, UniProt P49759); type: cell-based, Sf9
Chain of Dual specificity protein kinase CLK1 (P49759 whole entry): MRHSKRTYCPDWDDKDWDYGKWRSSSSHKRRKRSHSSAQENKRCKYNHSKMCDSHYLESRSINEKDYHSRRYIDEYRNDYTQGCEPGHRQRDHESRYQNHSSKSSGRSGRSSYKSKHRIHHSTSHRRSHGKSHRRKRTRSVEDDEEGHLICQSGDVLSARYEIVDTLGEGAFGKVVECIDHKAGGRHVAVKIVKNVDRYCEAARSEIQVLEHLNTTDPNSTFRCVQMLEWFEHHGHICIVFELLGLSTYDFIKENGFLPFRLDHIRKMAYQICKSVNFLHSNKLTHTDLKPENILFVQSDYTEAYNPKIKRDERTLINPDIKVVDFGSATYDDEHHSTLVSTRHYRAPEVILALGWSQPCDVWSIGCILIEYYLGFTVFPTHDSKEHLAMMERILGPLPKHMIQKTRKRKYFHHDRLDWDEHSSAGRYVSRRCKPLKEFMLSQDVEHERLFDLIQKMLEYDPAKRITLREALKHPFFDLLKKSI

Chain of Casein kinase I isoform epsilon (P49674 whole entry, canonical isoform): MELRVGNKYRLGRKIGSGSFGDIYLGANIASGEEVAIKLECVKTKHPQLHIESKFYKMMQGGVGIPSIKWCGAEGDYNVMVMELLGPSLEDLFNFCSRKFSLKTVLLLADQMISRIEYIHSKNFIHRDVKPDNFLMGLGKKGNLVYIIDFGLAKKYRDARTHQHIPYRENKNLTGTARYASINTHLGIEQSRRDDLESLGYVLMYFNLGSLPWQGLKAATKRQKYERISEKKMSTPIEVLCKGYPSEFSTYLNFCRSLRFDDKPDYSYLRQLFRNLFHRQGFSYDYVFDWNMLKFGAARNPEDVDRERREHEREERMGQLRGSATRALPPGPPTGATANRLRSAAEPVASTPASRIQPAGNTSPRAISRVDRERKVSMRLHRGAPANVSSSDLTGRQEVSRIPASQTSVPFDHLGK
Chain of Glycogen synthase kinase-3 beta (P49841 whole entry): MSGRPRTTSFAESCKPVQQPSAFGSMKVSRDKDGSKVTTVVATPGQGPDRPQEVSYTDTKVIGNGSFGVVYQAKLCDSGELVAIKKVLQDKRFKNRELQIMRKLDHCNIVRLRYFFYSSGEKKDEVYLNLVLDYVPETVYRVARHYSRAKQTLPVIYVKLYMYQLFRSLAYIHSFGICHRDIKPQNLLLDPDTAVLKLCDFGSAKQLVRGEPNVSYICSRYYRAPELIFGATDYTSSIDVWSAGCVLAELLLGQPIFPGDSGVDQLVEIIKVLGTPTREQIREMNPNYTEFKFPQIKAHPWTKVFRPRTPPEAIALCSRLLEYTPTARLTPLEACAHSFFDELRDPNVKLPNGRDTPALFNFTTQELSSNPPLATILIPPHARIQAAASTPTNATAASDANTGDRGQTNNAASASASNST
Chain of Dual specificity protein kinase CLK3 (P49761 whole entry): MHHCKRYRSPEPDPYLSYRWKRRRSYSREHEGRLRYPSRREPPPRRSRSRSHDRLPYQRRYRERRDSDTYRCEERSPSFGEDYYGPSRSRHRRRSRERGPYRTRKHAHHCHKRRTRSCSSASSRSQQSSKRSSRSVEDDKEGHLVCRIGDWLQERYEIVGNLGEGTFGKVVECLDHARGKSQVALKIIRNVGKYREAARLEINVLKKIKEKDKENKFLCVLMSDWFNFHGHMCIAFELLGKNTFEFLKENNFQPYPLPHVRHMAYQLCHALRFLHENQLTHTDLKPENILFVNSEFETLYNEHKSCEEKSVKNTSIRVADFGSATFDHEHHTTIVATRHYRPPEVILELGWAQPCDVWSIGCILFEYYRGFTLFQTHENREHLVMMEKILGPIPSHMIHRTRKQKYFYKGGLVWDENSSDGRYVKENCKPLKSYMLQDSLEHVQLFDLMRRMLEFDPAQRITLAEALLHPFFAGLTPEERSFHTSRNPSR
Chain of Dual specificity protein kinase CLK4 (Q9HAZ1 whole entry): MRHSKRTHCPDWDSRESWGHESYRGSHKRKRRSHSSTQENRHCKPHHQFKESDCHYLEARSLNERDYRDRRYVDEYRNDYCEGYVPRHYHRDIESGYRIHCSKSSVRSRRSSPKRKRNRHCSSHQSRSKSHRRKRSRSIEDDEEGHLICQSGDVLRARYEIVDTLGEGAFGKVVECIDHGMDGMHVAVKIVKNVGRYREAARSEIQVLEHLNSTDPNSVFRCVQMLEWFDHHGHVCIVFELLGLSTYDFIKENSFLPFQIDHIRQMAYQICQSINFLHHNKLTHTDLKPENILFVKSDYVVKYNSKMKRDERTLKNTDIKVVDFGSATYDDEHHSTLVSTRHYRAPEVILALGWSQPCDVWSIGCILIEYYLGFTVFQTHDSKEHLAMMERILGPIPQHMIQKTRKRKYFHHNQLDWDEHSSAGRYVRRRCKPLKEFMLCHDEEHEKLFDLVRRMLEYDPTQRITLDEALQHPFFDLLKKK
Chain of Cyclin-dependent kinase 5/CDK5 activator 1 (Q00535 whole entry): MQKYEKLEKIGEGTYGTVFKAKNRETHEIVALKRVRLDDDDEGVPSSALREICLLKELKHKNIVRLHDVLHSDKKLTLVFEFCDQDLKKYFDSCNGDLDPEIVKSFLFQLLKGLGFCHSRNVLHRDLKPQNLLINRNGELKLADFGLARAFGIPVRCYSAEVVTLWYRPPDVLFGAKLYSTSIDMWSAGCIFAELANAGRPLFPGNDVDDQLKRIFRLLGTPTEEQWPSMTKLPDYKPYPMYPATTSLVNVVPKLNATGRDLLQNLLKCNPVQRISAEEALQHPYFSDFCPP
Chain of Cyclin-dependent kinase 5/CDK5 activator 1 (Q15078 whole entry, further chain): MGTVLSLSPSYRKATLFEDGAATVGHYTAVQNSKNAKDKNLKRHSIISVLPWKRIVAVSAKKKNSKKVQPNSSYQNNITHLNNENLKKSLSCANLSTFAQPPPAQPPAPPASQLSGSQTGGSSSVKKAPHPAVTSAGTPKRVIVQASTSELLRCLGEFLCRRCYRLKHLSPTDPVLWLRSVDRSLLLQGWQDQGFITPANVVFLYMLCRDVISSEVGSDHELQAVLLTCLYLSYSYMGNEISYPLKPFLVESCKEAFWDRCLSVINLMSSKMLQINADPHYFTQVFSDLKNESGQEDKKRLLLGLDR
Chain of Dual specificity protein kinase CLK2 (P49760 whole entry, canonical isoform): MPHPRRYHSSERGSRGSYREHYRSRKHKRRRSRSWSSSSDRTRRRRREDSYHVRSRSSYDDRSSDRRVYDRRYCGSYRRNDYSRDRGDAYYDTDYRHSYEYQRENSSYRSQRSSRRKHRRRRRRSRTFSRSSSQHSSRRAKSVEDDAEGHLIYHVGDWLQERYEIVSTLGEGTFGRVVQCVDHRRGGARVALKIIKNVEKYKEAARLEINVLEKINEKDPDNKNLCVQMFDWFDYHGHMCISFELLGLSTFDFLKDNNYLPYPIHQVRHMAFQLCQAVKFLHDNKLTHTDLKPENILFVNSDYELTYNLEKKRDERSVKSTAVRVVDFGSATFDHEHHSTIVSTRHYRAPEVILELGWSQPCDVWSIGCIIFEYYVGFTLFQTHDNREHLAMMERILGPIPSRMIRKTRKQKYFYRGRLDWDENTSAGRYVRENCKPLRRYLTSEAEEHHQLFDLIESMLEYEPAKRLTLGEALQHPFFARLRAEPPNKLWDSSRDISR

Row | SMILES | IC50 [1] [µM] | IC50 [2] [µM] | IC50 [3] [µM] | IC50 [4] [µM] | IC50 [5] [µM] | IC50 [6] [µM] | IC50 [7] [µM] | IC50 [8] [µM] | IC50 [9] [µM] | IC50 [10] [µM] | IC50 [11] [µM]
1 | O=C1NC(NC2CCCCCC2)=N/C1=C\c1ccc2[nH]ccc2c1 | > 10 | > 10 | > 10 | > 10 | > 10 | > 10 | > 10 | > 10 | > 10 | > 10 | > 10
2 | O=C1NC(NC2CCCCC2)=N/C1=C\c1ccc2c(c1)OCO2 | > 10 | 4.28 | 2.08 | 0.074 | 1.32 | 0.955 | > 10 |  | 8.4 | 0.043 | 0.092
3 | CN1CCN(c2ccc(NC3=N/C(=C\c4ccc5c(c4)OCCO5)C(=O)N3)cc2)CC1 |  | 1.1 | 0.014 | 0.007 |  | 0.067 |  | 0.008 | 0.12 | 0.019 | 0.017
4 | Cn1ncc2cc(/C=C3\N=C(NC4CCCCCC4)NC3=O)ccc21 | > 10 | 0.381 |  | 0.037 | 6.09 | > 10 | > 10 | 1.58 | > 10 | 0.43 | 1.24
5 | COc1ccc(/C=C2\N=C(Nc3ccc(N4CCN(C)CC4)cc3)NC2=O)cc1O |  | 0.7 | 0.01 | 0.014 |  | 0.03 |  | 0.015 | 0.2 | 0.012 | 0.012

Other lines, results leading:

Row | IC50 [1] [µM] | IC50 [2] [µM] | IC50 [3] [µM] | IC50 [4] [µM] | IC50 [5] [µM] | IC50 [6] [µM] | IC50 [7] [µM] | IC50 [8] [µM] | IC50 [9] [µM] | IC50 [10] [µM] | IC50 [11] [µM] | SMILES
6 | 0.65 | 1.06 | 0.068 | 0.007 | 0.08 | 0.003 | > 10 | 0.095 | 1.54 | 0.003 | 0.009 | Cn1cnc2ccc(/C=C3\N=C(NC45CC6CC(CC(C6)C4)C5)NC3=O)cc21
7 | > 10 | > 10 | > 10 | > 10 | > 10 | > 10 | > 10 | > 10 | > 10 | > 10 | > 10 | Cn1ccc2cc(/C=C3\N=C(NC45CC6CC(CC(C6)C4)C5)NC3=O)ccc21
8 | > 10 | > 10 |  | 0.05 | 0.626 | 0.017 | > 10 | 1.63 | > 10 | 0.066 | 0.102 | O=C1NC(NC23CC4CC(CC(C4)C2)C3)=N/C1=C\c1ccc2c(c1)CCO2
9 | 0.025 | 0.09 | 0.002 | 0.001 | 0.146 |  | 0.062 | 0.01 | 0.094 | 0.004 | 0.011 | O=C1NC(NC23CC4(F)CC(F)(CC(F)(C4)C2)C3)=N/C1=C\c1ccc2ncsc2c1
10 | 0.28 | 8.53 | 0.038 | 0.001 |  |  | > 10 | 0.062 | 0.202 | 0.003 | 0.008 | O=C1NC(NC23CC4CC(CC(C4)C2)C3)=N/C1=C\c1ccc2ncoc2c1
11 | > 10 | 1.08 | 0.074 | 0.01 | 0.663 | 0.014 |  | 0.26 | 7.77 | 0.004 | 0.005 | O=C1NC(NC23CC4CC(CC(C4)C2)C3)=N/C1=C\c1ccc2[nH]ncc2c1
12 | > 10 | > 10 |  | 0.002 | 1.64 | 0.096 | > 10 | 0.183 | > 10 | 0.004 | 0.017 | O=C1NC(NC23CC4CC(CC(C4)C2)C3)=N/C1=C\c1ccc2c(c1)OCO2
